Laboratory results as given in patent publication US8350049B2, “Immobilized 1,2-benzisothiazolin-3-one” (priority 2006, dated 2013).

Key:
[1] = tested on: Pseudomonas aeruginosa DSM 939; experiment: Dry-film bactericide test, modified Swiss Standard SNV195120, water-based interior flat paint; assay type: cell-based
Procedure: (§1) The activity of the immobilized BIT/ZnO complex from Example 8 as a dry-film bactericide against Pseudomonas aeruginosa DSM 939 was determined in an ICI UK, Diamond Matt paint, a commercially available water-based interior flat paint (40% acrylic binder) according to the modified Swiss Standard SNV195120, which is described below
The immobilized BIT/ZnO complex from example 8 was incorporated into the water-based interior flat paint at the levels shown in the Table below. The paints were allowed to equilibrate for one week at room temperature.
A quantity of 50 mg of the BIT/ZnO complex was mixed with 100 g of the paint (resulting in 0.05% of the specimen 1 in the table below, the other specimens were prepared accordingly). Round filter papers (5.5 cm diameter) were coated with the test material to a thickness of 150 g/m2 wet and the resulting specimens dried at room temperature.
One half of the test specimen was leached by tap water (9 liters per m^2) in a beaker. The specimens were dried at room temperature and sterilized by gamma radiation from a cobalt 60 source (25 kGy). In the microbiological test, Pseudomonas aeruginosa DSM 939 was used as the bacteria source.
Liquid cultures of each bacterial strain were incubated over night at appropriate temperatures and then diluted 1:100,000 to result in a count of 10^4 cfu per ml. […]

[2] = tested on: Pseudomonas aeruginosa DSM 939; experiment: Dry-film bactericide test, modified Swiss Standard SNV195120, water-based interior eggshell paint; assay type: cell-based; design: key: 0H: No bacterial growth under the specimen, inhibition zone on the nutrient.; 0: No growth of bacteria under the specimen.; Growth of bacteria under the specimen
Procedure: The activity of the immobilized BIT/ZnO complex from Example 8 as a dry-film bactericide against Pseudomonas aeruginosa DSM 939 was determined in a commercially available water-based interior eggshell paint (40% acrylic binder with an adhesion promoter) according to the modified Swiss Standard SNV195120. The composition of the paint, which is typically applied in wet rooms, is set out below.
The microbiological test was performed according to the procedure described in Example 14.

[3] = ambient temperature; cited from earlier work
[4] = tested on: Escherichia coli; experiment: JIS Z2801:2000 (E) test, water-based interior flat paint; assay type: cell-based; conditions: contact time 8 hrs; active conc. 0.05%
Procedure: The activity of the immobilized BIT/ZnO complex from Example 9 as a dry-film bactericide against Escherichia coli was determined in ICI UK, Diamond Matt is paint, a commercially available water-based interior flat paint (40% acrylic binder) according to the JIS Z2801:2000 (E) test (Japanese Industrial Standard Z2801:2000 (E) test, Antimicrobial products—Test for antimicrobial activity and efficacy).
(§2) The complex was coated on to Leneta Scrub Resistance test panels, with a dry film thickness of 200 micrometers, with a foam roller allowing a drying time of 18 hours between coats. The panels were equilibrated in the dark for 7 days. Subsamples were cut (each 50 mm×50 mm). The samples were inoculated with a suspension of the test bacteria and then incubated in chambers (1 per species) at 20° C. and 65% relative humidity.
Swabs were employed for recovery of the bacteria. From the blank sample 1.8×10^5 cfu/cm^2 were recovered. This number was taken as the starting bacterial load on the surface.

[5] = tested on: Pseudomonas aeruginosa DSM 939; experiment: as above; assay type: cell-based; conditions: contact time 8 hrs; active conc. 0.05%
Procedure: as §2
as §1, with “in” for “in an”, “JIS Z2801:2000 (E) test. The microbiological test was performed according to the procedure” for “modified Swiss Standard SNV195120, which is”, “in Example 16.” for “below”

[6] = tested on: Pseudomonas aeruginosa DSM 939; experiment: JIS Z2801 test, interior acrylic wall paint of example 15; assay type: cell-based; conditions: contact time 8 hrs; active conc. 0.05%
Procedure: as §2
(§3) The activity of the immobilized BIT/ZnO complex from Example 8 as a dry-film bactericide against Pseudomonas aeruginosa DSM 939 was determined in the paint described in example 15 according to the JIS Z2801 test. The microbiological test was performed according to the procedure described in to Example 16.

[7] = tested on: Pseudomonas aeruginosa DSM 939; experiment: JIS Z2801 test after 24 h water leaching (severe environmental conditions), paint of example 15; assay type: cell-based; conditions: specimens leached in water 24 hours; contact time 24 hrs; active conc. 0.05%
Procedure: as §2
as §3, with “bactericide after aging” for “bactericide”, “in” for “in to”, “16. After equilibration, the specimens were leached in water (24 hours) to simulate use conditions in a severe environment. The paint film was cleaned by water jet.” for “16.”

[8] = tested on: Escherichia coli; experiment: JIS Z2801 test after 24 h water leaching (severe environmental conditions), interior flat paint; assay type: cell-based; conditions: specimens leached in water 24 hours; contact time 24 hrs; active conc. 0.05%
Procedure: as §2
The activity of the immobilized BIT/ZnO complex from Example 8 as a dry-film bactericide after artificial aging against Escherichia coli was determined in ICI UK, Diamond Matt paint, a commercially available water-based interior flat paint (40% acrylic binder) according to the JIS Z2801 test. The paint specimens were prepared as described in example 19. The microbiological test was performed according to the procedure described in Example 16. After equilibration, the specimens were leached in water (24 hours) to simulate use conditions in a severe environment. The paint film was cleaned by water jet.

## CN(C)C(=S)SSC(=S)N(C)C [Thiram, tetramethylthiuram disulfide]
[1]; active conc. 0.1%
  Psa unleached: 0
[1]; active conc. 0.2%
  Psa unleached: 0
[2]; active conc. 0.1%
  Psa unleached: G
  Psa leached 24 h: G
[2]; active conc. 0.2%
  Psa unleached: G
  Psa leached 24 h: G

## O=c1[nH]sc2ccccc12 [BIT, 1,2-benzisothiazolin-3-one]
[3]
  solubility of BIT in methanol: greater than 5%

## Zinc Pyrithione [ZPT]
[4]
  Kill rate % related to blank paint: 96.4%
  Log (Cfu/cm^2): 3.76 Log (Cfu/cm^2)
[5]
  Kill rate % related to blank paint: 69.40%
  Log (Cfu/cm^2): 4.18 Log (Cfu/cm^2)
[6]
  Kill rate % related to blank paint: 39.5%
  Log (Cfu/cm^2): 4.66 Log (Cfu/cm^2)
[7]
  Kill rate % related to blank paint: 85.5%
  Log (Cfu/cm^2): 3.04 Log (Cfu/cm^2)
[8]
  Kill rate % related to blank paint: 20%
  Log (Cfu/cm^2): 3.04 Log (Cfu/cm^2)
